In US20180201647A1, “Peptoid” (The University of Durham, priority 2015, published 2018):
Like-named read-outs stand apart in the source and are kept apart here. Where a SMILES comes first, the peptide text is derived from it. [ ]: non-standard residue; d: D form. Nspe = C[C@H](NCC(=O)O)c1ccccc1; NhArg = N=C(N)NCCCCNCC(=O)O; Nlys = NCCCCNCC(=O)O

Experiments:
Assay type in all cases: cell-based
[1] = system: L. donovani strain MHOM/ET/67/L82 axenic amastigotes; conditions: for active against L. donovani: statement in words; for IC50: strain MHOM/ET/67/L82 axenic amastigotes, 70 h
Method: Amastigotes of L. donovani strain MHOM/ET/67/L82 were grown in axenic culture at 37° C. in SM medium^24 at pH 5.4 supplemented with 10% heat-inactivated fetal bovine serum under an atmosphere of 5% CO2 in air. One hundred microlitres of culture medium with 10^5 amastigotes from axenic culture with or without a serial drug dilution were seeded in 96-well microtitre plates. Serial drug dilutions of eleven 3-fold dilution steps covering a range from 90 to 0.002 μg/ml were prepared. After 70 h of incubation the plates were inspected under an inverted microscope to assure growth of the controls and sterile conditions. 10 μl of Alamar Blue (12.5 mg resazurin dissolved in 100 ml distilled water) were then added to each well and the plates incubated for another 2 h. Then the plates were read with a Spectramax Gemini XS microplate fluorometer (Molecular Devices Cooperation, Sunnyvale, Calif., USA) using an excitation wave length of 536 nm and an emission wave length of 588 nm. Data were analyzed using the software Softmax Pro (Molecular Devices Cooperation, Sunnyvale, Calif., USA). Decrease of fluorescence (=inhibition) was expressed as percentage of the fluorescence of control cultures and plotted against the drug concentrations. From the sigmoidal inhibition curves the IC50 values were calculated.

[2] = system: T. cruzi Tulahuen strain C2C4; assay: microbe, parasite or virus in culture; conditions: for IC50: in L-6 cells, 96 h, read-out: IC50 T. cruzi; for active against T. cruzi: statement in words
Method: Rat skeletal myoblasts (L-6 cells) were seeded in 96-well microtitre plates at 2000 cells/well in 100 μL RPMI 1640 medium with 10% FBS and 2 mM 1-glutamine. After 24 h the medium was removed and replaced by 100 μl per well containing 5000 trypomastigote forms of T. cruzi Tulahuen strain C2C4 containing the β-galactosidase (Lac Z) gene. After 48 h the medium was removed from the wells and replaced by 100 μl fresh medium with or without a serial drug dilution of eleven 3-fold dilution steps covering a range from 100 to 0.002 μg/ml. After 96 h of incubation the plates were inspected under an inverted microscope to assure growth of the controls and sterility. Then the substrate CPRG/Nonidet (50 μl) was added to all wells. A color reaction developed within 2-6 h and could be read photometrically at 540 nm. Data were analyzed with the graphic programme Softmax Pro (Molecular Devices), which calculated IC50 values by linear regression from the sigmoidal dose inhibition curves. Benznidazole is used as control (IC50 0.5+0.2 μg/ml).

[3] = system: Serratia marcescens laboratory strain; conditions: 16 h
Method: (§1) Species used in MIC assays included gram-negative Escherichia coli K12 W3110, Pseudomonas aeruginosa laboratory strain PAO2 and Serratia marcescens laboratory strain and gram-positive Staphylococcus aureus NCTC 6571 and Micrococcus luteus laboratory strain.
(§2) Bacterial cultures were prepared by streaking the bacterial strains on to agar plates with an inoculation loop and incubating overnight at 37° C. A single colony was then selected and placed in 5 mL of Iso-Sensitest broth using an inoculation loop and incubated at 37° C. with shaking overnight.
(§3) MIC values were attained according to the protocol described by J. M. Andrews et al. [J. M. Andrews, J. Antimicrob. Chemother., 2001, 48, 5-16] and were conducted in 96-well microtitre plates in triplicate. 10-50 μL of each overnight culture was inoculated into 1.2 mL of Iso-Sensitest broth and grown at 37° C. with shaking. […] The inoculum was diluted ten-fold with Iso-Sensitest broth before use (to ˜10^3 cfu/spot). Peptide solutions were initially dissolved in DMSO (5 mg mL^−1) and then diluted further with Iso-Sensitest broth to achieve a concentration range of 4 mgL^−1 to 512 mgL^−1 using 2-fold serial dilutions. Samples were vortexed between dilutions where necessary to aid dissolution. 50 μL of inoculum and 50 μL of peptide solution were added to each test well to achieve a final concentration range of 2 mgL^−1 to 256 mgL^−1. Separate dilutions of ampicillin and DMSO were made up in a similar manner to act as a positive antibacterial control and a +DMSO control, respectively. 50 μL of inoculum and 50 μL of Iso-Sensitest broth were used as a positive control and 100 μL of inoculum was used as a negative control. Positive and negatives controls were conducted multiple times in parallel per plate. […] Quantitative data were attained as A650nm values using a BioTek® Synergy™ H4 Hybrid Multi-Mode Microplate Reader.

[4] = system: Escherichia coli K12 W3110
Method: as §1, §2, §3

[5] = system: Staphylococcus aureus NCTC 6571
Method: as §1, §2, §3

[6] = system: Pseudomonas aeruginosa laboratory strain PAO2
Method: as §1, §2, §3

[7] = system: erythrocytic stages of P. falciparum; conditions: for active against P. falciparum: statement in words; for IC50: strain (NF54 or K1) not given
Method: In vitro activity against erythrocytic stages of P. falciparum was determined using a 3H-hypoxanthine incorporation assay using the drug sensitive NF54 strain (Schipol airport) or the chloroquine and pyrimethamine resistant K1 strain that originate from Thailand and the standard drug chloroquine (Sigma C6628). Compounds were dissolved in DMSO at 10 mg/ml and added to parasite cultures incubated in RPMI 1640 medium without hypoxanthine, supplemented with HEPES (5.94 g/l), NaHCO3 (2.1 g/1), neomycin (100 U/ml), Albumax® (5 g/l) and washed human red cells A^+ at 2.5% haematocrit (0.3% parasitaemia). Serial drug dilutions of eleven 3-fold dilution steps covering a range from 100 to 0.002 μg/ml were prepared. The 96-well plates were incubated in a humidified atmosphere at 37° C.; 4% CO2, 3% O2, 93% N2. After 48 h 50 μl of 3H-hypoxanthine (=0.5 μCi) was added to each well of the plate. The plates were incubated for a further 24 h under the same conditions. The plates were then harvested with a Betaplate™ cell harvester (Wallac, Zurich, Switzerland), and the red blood cells transferred onto a glass fibre filter then washed with distilled water. The dried filters were inserted into a plastic foil with 10 ml of scintillation fluid, and counted in a Betaplate™ liquid scintillation counter (Wallac, Zurich, Switzerland). IC50 values were calculated from sigmoidal inhibition curves by linear regression using Microsoft Excel. Chloroquine and artemisinin are used as control.

[8] = second figure of cell, 37° C., Iso-Sensitest broth
[9] = second figure of cell, 37° C., 16 h, Iso-Sensitest broth

Compound	active against L. donovani [1]	IC50 [1] [µM]	IC50 [2] [µM]	active against T. cruzi [2]	MIC S. marcescens ([3]; laboratory strain) [µM]	MIC S. marcescens [3, 8] [mgL^−1]	MIC E. coli ([4]; K12, 16 h) [µM]	MIC E. coli [4, 9] [mgL^−1]	MIC S. aureus ([5]; NCTC 6571, 16 h) [µM]	MIC S. aureus [5, 9] [mgL^−1]	MIC P. aeruginosa ([6]; laboratory strain PAO2, 16 h) [µM]	MIC P. aeruginosa [6, 9] [mgL^−1]	active against P. falciparum [7]	IC50 [7] [µM]
C[C@@H](c1ccccc1)N(CC(N)=O)C(=O)CN(C(=O)CN(CCCCNC(=N)N)C(=O)CN(C(=O)CN(C(=O)CN(CCCCNC(=N)N)C(=O)CN(C(=O)CN(C(=O)CN(CCCCN)C(=O)CN(C(=O)CN(C(=O)CNCCCCN)[C@@H](C)c1ccccc1)[C@@H](C)c1ccccc1)[C@@H](C)c1ccccc1)[C@@H](C)c1ccccc1)[C@@H](C)c1ccccc1)[C@@H](C)c1ccccc1)[C@@H](C)c1ccccc1 [Peptoid 1, (NLys-Nspe-Nspe)2(NhArg-Nspe-Nspe)2] (H-[Nlys][Nspe][Nspe][Nlys][Nspe][Nspe][NhArg][Nspe][Nspe][NhArg][Nspe][Nspe]-NH2; N-terminus assumed)	active	11.1	12.3	active	134	256	17	32	17	32	34	64	active	1.5
C[C@@H](c1ccccc1)N(CC(N)=O)C(=O)CN(C(=O)CN(CCCCN)C(=O)CN(C(=O)CN(C(=O)CN(CCCCNC(=N)N)C(=O)CN(C(=O)CN(C(=O)CN(CCCCN)C(=O)CN(C(=O)CN(C(=O)CNCCCCNC(=N)N)[C@@H](C)c1ccccc1)[C@@H](C)c1ccccc1)[C@@H](C)c1ccccc1)[C@@H](C)c1ccccc1)[C@@H](C)c1ccccc1)[C@@H](C)c1ccccc1)[C@@H](C)c1ccccc1 [Peptoid 4, [(NhArg-Nspe-Nspe)(NLys-Nspe-Nspe)]2] (H-[NhArg][Nspe][Nspe][Nlys][Nspe][Nspe][NhArg][Nspe][Nspe][Nlys][Nspe][Nspe]-NH2; N-terminus assumed)	active	19.9	21.5	active	> 134	> 256	17	32	17	32	67	128	active	2.72
